Data published in US20160220569A1, “CDK4/6 Inhibitor Dosage Formulations For The Protection Of Hematopoietic Stem And Progenitor Cells During Chemotherapy” (G1 Therapeutics, Inc., priority 2015, published 2016).
Where two headings read alike, the source gives them in different places.

Assay: 14-day oral gavage toxicokinetic study in rats
Type: in vivo
Conditions: both sexes, rat, plasma, po; for concentration at 0.5 h / concentration at 1 h / concentration at 2 h / concentration at 4 h / concentration at 8 h / concentration at 12 h / concentration at 24 h: Mean Compound 1 Plasma Concentration, rats, Overall; for half-life: read-out: t½ (converted)
Procedure: Plasma was obtained from blood samples collected from rats in a composite sampling scheme, with 3 samples collected per sex, per dose, at each target collection time, as illustrated in Table 21 to Table 25. Samples were collected from the vehicle control group on Day 1 and Day 14 at 3 hour after administration. […] Blood samples were collected in tubes containing K3EDTA as an anticoagulant and placed on ice until processed to plasma via centrifugation. Samples were stored frozen at −80° C. until shipment to the bioanalytical laboratory for analysis.
The following parameters were determined:
Cmax: Maximum observed plasma concentration (ng/mL).
A value of 0 ng/mL was assigned to all values below the lower limit of quantitation (BLQ, <10.0 ng/mL).
AUC(0-inf): Area under the plasma concentration vs. time curve extrapolated from 0 to infinity (ng*h/mL), calculated as AUC(0-t)+AUC(t-inf) where AUC(t-inf) is calculated as last measurable concentration (CLast) divided by ke, where ke is the elimination rate constant determined by linear regression of the last three analytically measured points on the log plasma concentration vs. time curve. The selection criteria of the data points for inclusion in the calculation of ke required that at least three data points representing the terminal phase (after Tmax) were regressed and that R2≧0.850 when rounded.
CL: Clearance (L/h/kg), calculated as the dose divided by AUC(0-t).
Vd: Volume of distribution (L/kg), calculated as dose divided by the product of ke and AUC(0-inf).
Vdss: Steady state volume of distribution (L/kg), calculated as clearance […] mean residence time, where mean residence time is calculated as the area under the first moment curve divided by AUC(0-t).
t½: Elimination half-life (h), calculated as ln(2)/ke, where ke is the elimination rate constant determined by linear regression. Half-life was defined as not determined if regression criteria (specified in AUC(0-inf) above) were not met.
Cmax/Dose: Normalized Cmax, calculated as Cmax divided by total dose.
AUC/Dose: Normalized AUC, calculated as AUC(0-t) divided by total dose.
ii. Statistical Analysis Mean and standard deviation (SD) were calculated in Watson. Values of BLQ were assigned a value of 0 ng/mL for mean calculations. Concentration values and derived TK parameters were reported to three significant figures.

[1] = 2 mg/kg, oral 2 mg/kg, Study Day 1, Overall
[2] = 2 mg/kg, oral 2 mg/kg, Study Day 14, Overall
[3] = 5 mg/kg, oral 5 mg/kg, Study Day 1, Overall
[4] = 5 mg/kg, oral 5 mg/kg, Study Day 14, Overall

In the case of `CN1CCN(c2ccc(Nc3ncc4cc5n(c4n3)C3(CCCCC3)CNC5=O)nc2)CC1` [Compound 1, 2′-((5-(4-methylpiperazin-1-yl)pyridin-2-yl)amino)-7′,8′-dihydro-6′H-spiro[cyclohexane-1,9′-pyrazino[1′,2′:1,5]pyrrolo[2,3-d]pyrimidin]-6′-one], the concentration at 0.5 h (2 mg/kg, oral 2 mg/kg, Day 1, 0.5 h) is reported as 83.7 ng/mL, the concentration at 1 h (2 mg/kg, oral 2 mg/kg, Day 1, 1 h) is reported as 74.3 ng/mL and the concentration at 2 h (2 mg/kg, oral 2 mg/kg, Day 1, 2 h) is reported as 149 ng/mL. The concentration at 4 h (2 mg/kg, oral 2 mg/kg, Day 1, 4 h) was 150 ng/mL, the concentration at 8 h (2 mg/kg, oral 2 mg/kg, Day 1, 8 h) was 93.6 ng/mL and the concentration at 12 h (2 mg/kg, oral 2 mg/kg, Day 1, 12 h) was 67.9 ng/mL. It also gave a concentration at 24 h (2 mg/kg, oral 2 mg/kg, Day 1, 24 h) of 6.5 ng/mL, a concentration at 0.5 h (2 mg/kg, oral 2 mg/kg, Day 14, 0.5 h) of 88.2 ng/mL and a concentration at 1 h (2 mg/kg, oral 2 mg/kg, Day 14, 1 h) of 78.5 ng/mL. It also gave a concentration at 2 h (2 mg/kg, oral 2 mg/kg, Day 14, 2 h) of 142 ng/mL, a concentration at 4 h (2 mg/kg, oral 2 mg/kg, Day 14, 4 h) of 119 ng/mL and a concentration at 8 h (2 mg/kg, oral 2 mg/kg, Day 14, 8 h) of 103 ng/mL. The concentration at 12 h (2 mg/kg, oral 2 mg/kg, Day 14, 12 h) was 51.9 ng/mL, the concentration at 24 h (2 mg/kg, oral 2 mg/kg, Day 14, 24 h) was 4.32 ng/mL and the AUC(0-inf) [1] was 1770 ng·h/mL. The AUC(0-t) [1] was 1730 ng·h/mL, the Cmax [1] was 150 ng/mL and the Tmax [1] was 4 h. For the same molecule, the half-life [1] was 240 min, the AUC(0-inf) [2] was 1550 ng·h/mL and the AUC(0-t) [2] was 1530 ng·h/mL. It also gave a Cmax [2] of 142 ng/mL, a Tmax [2] of 2 h and a half-life [2] of 208 min. For the same molecule, the concentration at 0.5 h (5 mg/kg, oral 5 mg/kg, Day 1, 0.5 h) was 252 ng/mL, the concentration at 1 h (5 mg/kg, oral 5 mg/kg, Day 1, 1 h) was 300 ng/mL and the concentration at 2 h (5 mg/kg, oral 5 mg/kg, Day 1, 2 h) was 391 ng/mL. For the same molecule, the concentration at 4 h (5 mg/kg, oral 5 mg/kg, Day 1, 4 h) was 445 ng/mL, the concentration at 8 h (5 mg/kg, oral 5 mg/kg, Day 1, 8 h) was 318 ng/mL and the concentration at 12 h (5 mg/kg, oral 5 mg/kg, Day 1, 12 h) was 168 ng/mL. It also gave a concentration at 24 h (5 mg/kg, oral 5 mg/kg, Day 1, 24 h) of 22.1 ng/mL, a concentration at 0.5 h (5 mg/kg, oral 5 mg/kg, Day 14, 0.5 h) of 348 ng/mL and a concentration at 1 h (5 mg/kg, oral 5 mg/kg, Day 14, 1 h) of 389 ng/mL. It also gave a concentration at 2 h (5 mg/kg, oral 5 mg/kg, Day 14, 2 h) of 470 ng/mL, a concentration at 4 h (5 mg/kg, oral 5 mg/kg, Day 14, 4 h) of 430 ng/mL and a concentration at 8 h (5 mg/kg, oral 5 mg/kg, Day 14, 8 h) of 262 ng/mL. For the same molecule, the concentration at 12 h (5 mg/kg, oral 5 mg/kg, Day 14, 12 h) was 151 ng/mL, the concentration at 24 h (5 mg/kg, oral 5 mg/kg, Day 14, 24 h) was 18 ng/mL and the AUC(0-inf) [3] was 5150 ng·h/mL. The AUC(0-t) [3] was 5020 ng·h/mL, the Cmax [3] was 445 ng/mL and the Tmax [3] was 4 h. It also gave a half-life [3] of 248 min, an AUC(0-inf) [4] of 4930 ng·h/mL and an AUC(0-t) [4] of 4820 ng·h/mL. It also gave a Cmax [4] of 470 ng/mL, a Tmax [4] of 2 h and a half-life [4] of 245 min. The concentration at 0.5 h (15 mg/kg, oral 15 mg/kg, Day 1, 0.5 h) was 899 ng/mL, the concentration at 1 h (15 mg/kg, oral 15 mg/kg, Day 1, 1 h) was 1170 ng/mL and the concentration at 2 h (15 mg/kg, oral 15 mg/kg, Day 1, 2 h) was 1490 ng/mL. It also gave a concentration at 4 h (15 mg/kg, oral 15 mg/kg, Day 1, 4 h) of 1430 ng/mL, a concentration at 8 h (15 mg/kg, oral 15 mg/kg, Day 1, 8 h) of 1230 ng/mL and a concentration at 12 h (15 mg/kg, oral 15 mg/kg, Day 1, 12 h) of 767 ng/mL. For the same molecule, the concentration at 24 h (15 mg/kg, oral 15 mg/kg, Day 1, 24 h) was 84.5 ng/mL.
